The text below walks through data of patent US20100041756A1, “METHOD OF MODULATING B CELL FUNCTIONING” (priority 2004, published 2010).

In assay [1] the test system is DBA/1 mice with established collagen-induced arthritis. The assay can be described thus: Effect of tranilast on established collagen-induced arthritis (Example 1). Format: in vivo, mouse. The note with it: for Histological score (mean ± SE): 10 days, score 0-3. As to the method: FIG. 1 is a graphical representation of the amelioration of established collagen-induced arthritis (CIA) by intraperitoneal administration of tranilast. DBA/1 mice were immunised with bovine type II collagen in complete Freund's adjuvant in order to induce arthritis. After onset of clinical disease mice were randomly assigned to different treatment groups and given tranilast at 100, 200 or 400 mg/kg/day or vehicle control. Clinical scores were assessed throughout the treatment period using a clinical scoring system described in the Examples. The maximum possible score per mouse is 8. There were 7-10 mice per treatment group.
FIG. 2 is a graphical representation of the amelioration of established CIA by administration of tranilast. DBA/1 mice were immunised with bovine type II collagen in complete Freund's adjuvant in order to induce arthritis. After onset of clinical disease mice were randomly assigned to different treatment groups and given tranilast at 100, 200 or 400 mg/kg/day (i.p.) or vehicle control. Paw-swelling was measured throughout the treatment. There were 7-10 mice per treatment group.
Bovine CII was purified and prepared as previously described (9) and solubilised by stirring overnight at 4° C. in 0.1M acetic acid.
Male DBA/1 mice (7-8 animals/group) were immunised i.d. at 8-12 weeks of age with bovine CII (200 μg/mouse), emulsified in CFA (Difco Laboratories, West Moseley, UK). Beginning at 14 days after immunisation, mice were inspected daily for signs of arthritis and treatment was initiated on day 1 of arthritis. This research was approved by the local Ethical Review Process Committee and by the Home Office of the United Kingdom.
Tranilast was dissolved in 1% NaHCO3 by heating to 70° C. and injected i.p. at 100, 200 or 400 mg/kg/day.
The development of arthritis was assessed daily for the duration of the experiment. The clinical severity of arthritis was graded as follows, 0=normal, 1=slight swelling and/or erythema, 2=pronounced oedematous swelling. Each limb was graded, allowing a maximal clinical score of 8 for each animal. Swelling of hind paws was recorded with a pair of calipers. All clinical evaluations were performed in a blinded manner.
At the end of the treatment period the mice were killed, bled and their joints were processed for histology. The first limb to show clinical evidence of arthritis was removed, fixed, decalcified, and embedded before sectioning and staining with haemotoxylin and eosin. Saggital sections were examined by microscopy in a blinded fashion and joints were graded as follows: 0=normal; 1=mild synovitis without cartilage loss or bone erosion; 2=moderate or severe synovitis with erosions present but normal joint architecture intact; 3=severe synovitis with extensive erosions and normal joint architecture disrupted.
DBA/1 mice were immunised with bovine type II collagen in complete Freund's adjuvant in order to induce arthritis. After onset of clinical disease mice were randomly assigned to different treatment groups and given tranilast at 100, 200 or 400 mg/kg/day (i.p.) or vehicle control. Treatment was continued for 10 days after which time the mice were killed and paws were processed for histology. Joints were graded histologically in a blinded fashion.

In assay [2] the test system is DBA/1 mice with established CIA. The assay can be described thus: Treatment of established CIA (Example 4): clinical score, paw-swelling, histology, relapse. It is filed as in vivo, mouse. As to the method: FIG. 6 is a graphical representation of the treatment of established CIA with 3,4-DAA. DBA/1 mice were immunised with type II collagen in CFA and monitored for development of arthritis. On day 1 of arthritis, mice were injected intraperitoneally with 3,4-DAA on a daily basis. Paw thickness was measured with callipers. The clinical scoring system was as follows: 0=normal, 1=slight swelling and/or erythema, and 2=pronounced oedematous swelling. Each limb was graded, giving a maximum score of 8 per mouse. Histological assessment of arthritis was carried out on haematoxylin and eosin stained sections using a scoring system as follows: 0, normal; 1, minimal synovitis without cartilage/bone erosion; 2, synovitis with some marginal erosion but joint architecture maintained; 3, severe synovitis and erosion with loss of normal joint architecture. There were 14 mice/group (data pooled from two separate experiments). *, P<0.05 (compared to control group).
FIG. 9 is a graphical representation depicting the relapse of arthritis 4 days after cessation of therapy. Mice with established CIA (n=6) were treated with 3,4-DAA (400 mg/kg/day) from days 1 to 5 of arthritis and clinical severity of arthritis was monitored up to day 12. Arthritis is seen to relapse at around day 9.
Type II collagen was purified from bovine cartilage, as described [Williams, R. O. 2004, Methods Mol. Med. 98:207-216] and solubilized by stirring overnight at 4° C. in acetic acid (0.1M) or Tris buffer (0.05 M Tris, containing 0.2 M NaCl, pH 7.4). Tranilast was synthesised by Angiogen Pharmaceuticals Pty. Ltd. For in vivo studies Tranilast was dissolved at a maximum concentration of 10 mg/ml in 1% sodium bicarbonate by heating for 1 h at 70° C. Upon cooling, an emulsion was formed. For in vitro studies Tranilast was dissolved in dimethyl sulphoxide (DMSO). 3-Hydroxy-anthranilic acid (3-HAA) was purchased from Sigma (Poole, UK) and dissolved in PBS.
Male DBA/1 mice (8-12 weeks old) were immunized intradermally at the base of the tail with bovine type II collagen (200 μg) emulsified in complete Freund's adjuvant (CFA; Difco, West Moseley, UK). Arthritis was monitored clinically using the following scoring system: 0=normal, 1=slight swelling and/or erythema, and 2=pronounced oedematous swelling. Each limb was graded, giving a maximum score of 8 per mouse. In addition, paw-swelling was measured using calipers.
Histopathological assessment of arthritis was carried out in a blinded fashion on decalcified haematoxylin and eosin stained sections using a scoring system as follows: 0, normal; 1, minimal synovitis without cartilage/bone erosion; 2, synovitis with some marginal erosion but joint architecture maintained; 3, severe synovitis and erosion with loss of normal joint architecture. This research was approved by the local ethical review process committee and by the Home Office of Great Britain.
The ability of Tranilast to treat established CIA was tested. Mice were immunised with type II collagen in CFA. On day 1 of clinical arthritis (the day that arthritis was first observed) mice were randomly assigned to different treatment groups and given Tranilast (100 mg/kg/day, 200 mg/kg/day or 400 mg/kg/day) or vehicle alone over a 10 day period. […]
It is clearly of interest to establish what happens when treatment with Tranilast is stopped. […] Treatment was then stopped and mice were monitored for a further 7 days.

The mark [3] stands for this setting: 100, 200 or 400 mg/kg/day, 10 days (FIG. 6).

As for `COc1ccc(/C=C/C(=O)Nc2ccccc2C(=O)O)cc1OC` [Tranilast, 2-[[3-(3,4-dimethoxyphenyl)-1-oxo-2-propenyl]amino]benzoic acid], the “Histological score (mean ± SE)” value in assay [1] (100 mg/kg/day i.p.) turned out to be 1.64 ± 0.35; in assay [1] (200 mg/kg/day i.p.) it was 1.19 ± 0.35; in assay [1] (400 mg/kg/day i.p.), 0.57 ± 0.20. In addition, the clinical scores entry is reported as “reduced clinical scores in a dose-dependent fashion” in assay [1] (100, 200 or 400 mg/kg/day i.p., 10 days (FIG. 1)) and “dose-dependent reduction” in assay [2] (setting [3]). The paw-swelling entry in assay [1] (100, 200 or 400 mg/kg/day i.p., 10 days (FIG. 2)) was “reduced paw-swelling in a dose-dependent fashion”; in assay [2] (setting [3]), “dose-dependent reduction”. The “synovitis, cartilage loss and bone erosion (histology)” value in assay [1] (compared to control mice, end of 10 day treatment) is “reduced level of synovitis, cartilage loss and bone erosion”. In addition, in assay [2] (400 mg/kg/day days 1 to 5, monitored up to day 12 (FIG. 9)), the “day of relapse (exacerbation) of arthritis after cessation of therapy” value is 9 days. In addition, in assay [2] (400 mg/kg/day, day 1 to day 5 of arthritis (FIG. 9)), the “arthritis severity during the treatment period” value is given as “dramatic reduction in arthritis severity”. Further, in assay [2] (day 10 (FIG. 6)), the “histological severity of arthritis” value is “clear dose-dependent reduction”.
